Assay results from ChEMBL document CHEMBL3880421, “Indazole compounds and pharmaceutical compositions for inhibiting protein kinases, and methods for their use” (2003).

Experiments:
[1] = Terminal half life in B6 mouse at 200 mg/kg, po by UV-HPLC analysis; assay type: ADME, organism-based; conditions: in vivo, read-out: beta t1/2 (converted)
[2] = Cmin in B6 mouse at 200 mg/kg, po measured after 7 hrs by UV-HPLC analysis; assay type: ADME, organism-based; conditions: in vivo, read-out: Cmin
[3] = AUClast in B6 mouse at 200 mg/kg, po by UV-HPLC analysis; assay type: ADME, organism-based; design: dose 200 mg/kg, time 0 - last, route oral; conditions: in vivo
[4] = Terminal half life in B6 mouse at 25 mg/kg, po by UV-HPLC analysis; assay type: ADME, organism-based; conditions: B6, mouse, in vivo, read-out: beta t1/2 (converted)
[5] = test system: Rattus norvegicus; test: Antivascular activity in rat model of retinopathy assessed as vessel regression in retina at 5 mg/ml, administered intravitreally on postnatal day 8 measured after 6 days by ADPase-staining based histochemical analysis; assay type: functional
[6] = Terminal half life in B6 mouse at 25 mg/kg, ip by UV-HPLC analysis; assay type: ADME, organism-based; conditions: in vivo, read-out: beta t1/2 (converted)
[7] = Terminal half life in B6 mouse at 25 mg/kg, po administered in 0.5% CMC by UV-HPLC analysis; assay type: ADME, organism-based; conditions: in vivo, read-out: beta t1/2 (converted)

Work on Cc1cc(C(=O)Nc2cccc(C(=O)c3ccc4c(/C=C/c5ccccn5)n[nH]c4c3)c2)n(C)n1.Cl yielded a half-life [1] of 9.4 h, a concentration at 7 h [2] of 12100 ng/mL and an AUC(0-t) [3] of 156 µg·h/mL.

For CCONC(=O)c1ccccc1Sc1ccc2c(/C=C/c3ccccn3)n[nH]c2c1, the half-life [4] was 2 h, the Activity [5] was “>=25 - 75%” and the half-life [6] was 4.1 h. The half-life [7] was 2 h.
